Values of other authors as cited in PMC11643554, “Synthesis, Cytotoxicity and Antiproliferative Effect of New Pyrrole Hydrazones” (Molecules, 2024).

System: melanoma cells
Set-up: method as in PMID 25524552, PMID 29364157
Conditions: standard cytostatics used in chemotherapy, compared with 1C in SH-4 melanoma cells; cited from earlier work

| Compound | IC50 [µM] |
| --- | --- |
| N.N.O=C([O-])C1(C(=O)[O-])CCC1.[Pt+2] [Carboplatin] | 18.2 |
| CN(C)C(=O)c1cc2cnc(Nc3ccc(N4CCNCC4)cn3)nc2n1C1CCCC1 [Ribociclib] | 35 |
| Cn1nnc2c(C(N)=O)ncn2c1=O [Temozolomide] | 50 |
